Converted amounts (≈) assume the structure as drawn. Where a SMILES comes first, the peptide text is derived from it. [ ]: non-standard residue; d: D form.
Tests used:
MDRST 8007 = assay: Minimal inhibitory concentration (MIC), single agent; format: cell-based, Salmonella typhimurium; conditions: agent alone
Experimental: (§1) For the antibacterial activity, a minimal inhibitory concentration (MIC) of a peptide in which fungus bodies were not split in an MH medium with sufficient nutrients was measured.
(§2) Specifically, the strains described in the following [Table 2] were purchased and diluted with an MH medium such that the number of bacteria was 2×10^6 colony-forming units (CFUs), 100 μl of each of the diluted strains was aliquoted into a 96-well microtiter plate, and then 100 μl of a peptide solution diluted with the MH medium (solution diluted stepwise at 2: 1) was added to each well.

MRSA 3114 = format: cell-based, Staphylococcus aureus; conditions: 3114
Experimental: as §1, §2

MRSA 3126 = format: cell-based, Staphylococcus aureus; conditions: 3126
Experimental: as §1, §2

MDREC 1238 = format: cell-based, Escherichia coli
Experimental: as §1, §2

MDRAB 12035 [1] = assay: MIC of antibiotic during combined treatment with antimicrobial peptide; format: cell-based, Acinetobacter baumannii
Experimental: Specifically, the strains described in [Table 2] were prepared and diluted with an MH medium such that the number of bacteria was 2×10^6 colony-forming units (CFUs) per 1 ml, 100 μl of the diluted strains was each aliquoted into a 96-well microtiter plate, and then 50 μl of a peptide solution diluted with the MH medium from the MIC value (solution diluted stepwise at 2: 1) was added to each well. Thereafter, the MIC value of each mixed solution was determined by diluting the antibiotic solution with the MH medium, adding 50 μl of the diluted solution to each well, and performing an experiment even under a reversed condition.

MDRAB 12036 = format: cell-based, Acinetobacter baumannii
Experimental: as §1, §2

S. typhimurium = assay: microbe, parasite or virus in culture; format: cell-based, Salmonella typhimurium
Experimental: as §1, §2

MDRAB 12035 [2] = assay: microbe, parasite or virus in culture; format: cell-based, Acinetobacter baumannii
Experimental: as §1, §2

A. baumannii = assay: microbe, parasite or virus in culture; format: cell-based, Acinetobacter baumannii
Experimental: as §1, §2

S. aureus = assay: microbe, parasite or virus in culture; format: cell-based, Staphylococcus aureus
Experimental: as §1, §2

MDRPA 2002 = format: cell-based, Pseudomonas aeruginosa
Experimental: as §1, §2

MDRPA 2003 = format: cell-based, Pseudomonas aeruginosa
Experimental: as §1, §2

[3] = peptide treatment concentration 1 μg/ml
[4] = peptide treatment concentration 2 μg/ml
[5] = peptide treatment concentration 4 μg/ml
[6] = peptide treatment concentration 6 μg/ml
[7] = peptide treatment concentration 8 μg/ml
[8] = peptide treatment concentration 16 μg/ml
[9] = peptide treatment concentration 32 μg/ml
[10] = peptide treatment concentration 64 μg/ml

SMILES	Minimal inhibitory concentration MIC (MDRST 8007)	Minimal inhibitory concentration MIC (MRSA 3114)	Minimal inhibitory concentration MIC (MRSA 3126)	Minimal inhibitory concentration MIC (MDREC 1238)	Erythromycin MIC during combined treatment with peptide (MDRAB 12035 [1]; [3])	Linezolid MIC during combined treatment with peptide (MDRAB 12035 [1]; [3])	Vancomycin MIC during combined treatment with peptide (MDRAB 12035 [1]; [3])	Erythromycin MIC during combined treatment with peptide (MDRAB 12035 [1]; [4])	Linezolid MIC during combined treatment with peptide (MDRAB 12035 [1]; [4])	Vancomycin MIC during combined treatment with peptide (MDRAB 12035 [1]; [4])	Erythromycin MIC during combined treatment with peptide (MDRAB 12035 [1]; [5])	Linezolid MIC during combined treatment with peptide (MDRAB 12035 [1]; [5])	Vancomycin MIC during combined treatment with peptide (MDRAB 12035 [1]; [5])	Erythromycin MIC during combined treatment with peptide (MDRAB 12035 [1]; [6])	Linezolid MIC during combined treatment with peptide (MDRAB 12035 [1]; [6])	Vancomycin MIC during combined treatment with peptide (MDRAB 12035 [1]; [6])	Erythromycin MIC during combined treatment with peptide (MDRAB 12035 [1]; [7])	Linezolid MIC during combined treatment with peptide (MDRAB 12035 [1]; [7])	Vancomycin MIC during combined treatment with peptide (MDRAB 12035 [1]; [7])	Erythromycin MIC during combined treatment with peptide (MDRAB 12035 [1]; [8])	other results
CC[C@H](C)[C@H](NC(=O)[C@H](CCCCN)NC(=O)[C@H](Cc1c[nH]c2ccccc12)NC(=O)[C@@H](N)CCCNC(=N)N)C(=O)N[C@@H](Cc1ccccc1)C(=O)N[C@@H](CCCCN)C(=O)N[C@@H](CCCCN)C(=O)N[C@H](C(=O)N[C@H](CCCCN)C(=O)N[C@@H](CCCCN)C(=O)N[C@@H](CC(C)C)C(=O)N[C@@H](CC(C)C)C(=O)N[C@@H](Cc1c[nH]cn1)C(=O)N[C@@H](CO)C(=O)N[C@@H](C)C(=O)N[C@@H](CCCCN)C(=O)N[C@@H](CCCCN)C(=O)N[C@@H](Cc1c[nH]c2ccccc12)C(N)=O)[C@@H](C)CC [PapMA-16, RWK IFK KIk KLL HSA KKW-NH2] (H-RWKIFKKI[dK]KLLHSAKKW-NH2; N-terminus assumed)	64 µg/mL (≈ 27.4 µM)	>128 µg/mL	>128 µg/mL	64 µg/mL (≈ 27.4 µM)	32 µg/mL	>128 µg/mL	>128 µg/mL	32 µg/mL	>128 µg/mL	>128 µg/mL	16 µg/mL	128 µg/mL	64 µg/mL	4 µg/mL	32 µg/mL	32 µg/mL	1 µg/mL	16 µg/mL	16 µg/mL	0.25 µg/mL	Linezolid MIC during combined treatment with peptide (MDRAB 12035 [1]; [8]): 8 µg/mL; Vancomycin MIC during combined treatment with peptide (MDRAB 12035 [1]; [8]): 8 µg/mL; Erythromycin MIC during combined treatment with peptide (MDRAB 12035 [1]; [9]): 0 µg/mL; Linezolid MIC during combined treatment with peptide (MDRAB 12035 [1]; [9]): 0 µg/mL; Vancomycin MIC during combined treatment with peptide (MDRAB 12035 [1]; [9]): 0 µg/mL; Erythromycin MIC during combined treatment with peptide (MDRAB 12035 [1]; [10]): 0 µg/mL; Linezolid MIC during combined treatment with peptide (MDRAB 12035 [1]; [10]): 0 µg/mL; Vancomycin MIC during combined treatment with peptide (MDRAB 12035 [1]; [10]): 0 µg/mL; Minimal inhibitory concentration MIC (MDRAB 12036): 32 µg/mL (≈ 13.7 µM); Minimal inhibitory concentration MIC (S. typhimurium): 64 µg/mL (≈ 27.4 µM); Minimal inhibitory concentration MIC (MDRAB 12035 [2]): 32 µg/mL (≈ 13.7 µM); Peptide MIC, peptide alone (MDRAB 12035 [2]): 32 µg/mL; Minimal inhibitory concentration MIC (A. baumannii): 32 µg/mL (≈ 13.7 µM); Peptide MIC, peptide alone (A. baumannii): 32 µg/mL; Minimal inhibitory concentration MIC (S. aureus): >128 µg/mL; Minimal inhibitory concentration MIC (MDRPA 2002): 64 µg/mL (≈ 27.4 µM); Minimal inhibitory concentration MIC (MDRPA 2003): 64 µg/mL (≈ 27.4 µM)
CC[C@H](C)[C@H](NC(=O)[C@H](CCCCN)NC(=O)[C@H](Cc1c[nH]c2ccccc12)NC(=O)[C@@H](N)CCCNC(=N)N)C(=O)N[C@@H](Cc1ccccc1)C(=O)N[C@@H](CCCCN)C(=O)N[C@@H](CCCCN)C(=O)N[C@H](C(=O)N1CCC[C@H]1C(=O)N[C@@H](CCCCN)C(=O)N[C@@H](Cc1ccccc1)C(=O)N[C@@H](CC(C)C)C(=O)N[C@@H](Cc1c[nH]cn1)C(=O)N[C@@H](CO)C(=O)N[C@@H](C)C(=O)N[C@@H](CCCCN)C(=O)N[C@@H](CCCCN)C(=O)N[C@@H](Cc1ccccc1)C(N)=O)[C@@H](C)CC [PapMA-1, RWK IFK KIP KFL HSA KKF-NH2] (H-RWKIFKKIPKFLHSAKKF-NH2; N-terminus assumed)	64 µg/mL (≈ 27.8 µM)	>128 µg/mL	>128 µg/mL	64 µg/mL (≈ 27.8 µM)	32 µg/mL	>128 µg/mL	>128 µg/mL	32 µg/mL	128 µg/mL	>128 µg/mL	16 µg/mL	64 µg/mL	128 µg/mL	4 µg/mL	32 µg/mL	32 µg/mL	0.5 µg/mL	16 µg/mL	16 µg/mL	0.25 µg/mL	Linezolid MIC during combined treatment with peptide (MDRAB 12035 [1]; [8]): 8 µg/mL; Vancomycin MIC during combined treatment with peptide (MDRAB 12035 [1]; [8]): 16 µg/mL; Erythromycin MIC during combined treatment with peptide (MDRAB 12035 [1]; [9]): 0.125 µg/mL; Linezolid MIC during combined treatment with peptide (MDRAB 12035 [1]; [9]): 4 µg/mL; Vancomycin MIC during combined treatment with peptide (MDRAB 12035 [1]; [9]): 8 µg/mL; Erythromycin MIC during combined treatment with peptide (MDRAB 12035 [1]; [10]): 0 µg/mL; Linezolid MIC during combined treatment with peptide (MDRAB 12035 [1]; [10]): 0 µg/mL; Vancomycin MIC during combined treatment with peptide (MDRAB 12035 [1]; [10]): 0 µg/mL; Minimal inhibitory concentration MIC (MDRAB 12036): 64 µg/mL (≈ 27.8 µM); Minimal inhibitory concentration MIC (S. typhimurium): 64 µg/mL (≈ 27.8 µM); Minimal inhibitory concentration MIC (MDRAB 12035 [2]): 64 µg/mL (≈ 27.8 µM); Peptide MIC, peptide alone (MDRAB 12035 [2]): 64 µg/mL; Minimal inhibitory concentration MIC (A. baumannii): 64 µg/mL (≈ 27.8 µM); Peptide MIC, peptide alone (A. baumannii): 64 µg/mL; Minimal inhibitory concentration MIC (S. aureus): >128 µg/mL; Minimal inhibitory concentration MIC (MDRPA 2002): 16 µg/mL (≈ 6.95 µM); Minimal inhibitory concentration MIC (MDRPA 2003): 32 µg/mL (≈ 13.9 µM)

Source: patent US11214594B2, “Antimicrobial peptide having synergistic antibacterial effect with antibiotics on multidrug resistant bacteria, and use thereof” (priority 2016, dated 2022)
